Earlier results as cited in patent US12349704B2, “High quality cultured meat, compositions and methods for producing same” (ALEPH FARMS LTD., priority 2018, dated 2025).

Legend:
[1] = not given; remark: listed apart in the source
[2] = dietary or formulated lycopene

NCC(=O)[O-].NCC(=O)[O-].[Fe+2] [Ferrous bisglycinate]
tolerability of dietary iron supplementation (approximately 15 to 120 mg iron/day, iron-deficient young children, adult males, pregnant and non-pregnant females): well tolerated | adverse effects in field trials of iron fortification of foods (between 2 and 23 mg/day of supplemental dietary iron): without any reports of adverse effects

CC1=C(/C=C/C(C)=C/C=C/C(C)=C/C=C/C=C(C)/C=C/C=C(C)/C=C/C2=C(C)CCCC2(C)C)C(C)(C)CCC1 [beta-carotene]
daily intake that may lead to hypercarotenemia (yellowish coloration of the skin, harmless and reversible) [1]: > 30 mg

CC(C)=CCC/C(C)=C/C=C/C(C)=C/C=C/C(C)=C/C=C/C=C(C)/C=C/C=C(C)/C=C/C=C(\C)CCC=C(C)C [lycopene]
intake levels at which no adverse effects were observed [2]: up to 3 g/(kg*d)
